PMC7956753, “Development of ^18F-Labeled Radiotracers for PET Imaging of the Adenosine A2A Receptor: Synthesis, Radiolabeling and Preliminary Biological Evaluation” (International Journal of Molecular Sciences, 2021)

Columns and labels:
[1] = Lipophilicity (LogD7.4), shake-flask method in n-octanol/PBS; format: physicochemical; conditions: pH 7.4, n-octanol-PBS, RT, n = 3
Procedure: (§1) The chemical stability of [^18F]PPY1 and [^18F]PPY2 was investigated in isotonic saline, phosphate-buffered saline (PBS, pH 7.4) and n-octanol by incubation at 37 °C. Samples were taken at 15, 30 and 60 min of incubation time and analyzed by radio-TLC and radio-HPLC. LogD7.4 values of [^18F]PPY1 and of [^18F]PPY2 were experimentally determined in n-octanol/PBS at RT by the shake-flask method. The measurements were performed in triplicate.

[2] = In vivo metabolism (radiometabolite analysis of plasma and brain by radio-HPLC); conditions: CD-1 mice, i.v., 30 min p.i., n = 2
Procedure: The radiotracer was administered i.v. as bolus in awake CD-1 mice (40 MBq [^18F]PPY1; 30 MBq [^18F]PPY2; n = 2, respectively). At 30 min post injection (p.i.), blood samples were taken retroorbitally from the anesthetized animals. Plasma was separated by centrifugation at 8000 rpm at RT for 1 min (Centrifuge 5418, Eppendorf Vertrieb Deutschland GmbH, Wesseling-Berzdorf, Germany), and brain homogenized in 1 mL water on ice (10 strokes of a PTFE plunge at 1000 rpm in a borosilicate glass cylinder; Potter S Homogenizer; B. Braun Melsungen AG, Melsungen, Germany). For protein precipitation and extraction an ice-cold mixture of acetone/water (4/1; v/v) was used in a ratio of 4:1 (v/v) of solvent to plasma or brain homogenate, respectively. The samples were vortexed for 3 min, equilibrated on ice for 5 min, and centrifuged for 5 min at 10,000 rpm. After separating the supernatant, the precipitates were washed with 100 µL of the solvent mixture and subjected to the same procedure. The combined supernatants were concentrated at 75 °C under nitrogen flow to a final volume of approx. 100 µL and analyzed by analytical radio-HPLC (see section quality control). To determine the percentage of activity in the supernatants compared to total activity, aliquots of each step as well as the precipitates were quantified by a gamma counter (Wallac Wizard 1480; PerkinElmer, Turku, Finland).

[3] = biological target: T1, A2AR (Mus musculus, UniProt Q60613); assay: In vitro autoradiography on mouse brain slices; format: binding, CD-1 mice; conditions: for fraction of total binding displaced by ZM241385 in striatum (specific binding): 10 µM ZM241385
T1 construct: Brains of CD-1 mice frozen in isopentane were cut using a cryostat; from tissue; host or cells: CD-1 mouse brain sections
T1 sequence (Q60613 whole entry): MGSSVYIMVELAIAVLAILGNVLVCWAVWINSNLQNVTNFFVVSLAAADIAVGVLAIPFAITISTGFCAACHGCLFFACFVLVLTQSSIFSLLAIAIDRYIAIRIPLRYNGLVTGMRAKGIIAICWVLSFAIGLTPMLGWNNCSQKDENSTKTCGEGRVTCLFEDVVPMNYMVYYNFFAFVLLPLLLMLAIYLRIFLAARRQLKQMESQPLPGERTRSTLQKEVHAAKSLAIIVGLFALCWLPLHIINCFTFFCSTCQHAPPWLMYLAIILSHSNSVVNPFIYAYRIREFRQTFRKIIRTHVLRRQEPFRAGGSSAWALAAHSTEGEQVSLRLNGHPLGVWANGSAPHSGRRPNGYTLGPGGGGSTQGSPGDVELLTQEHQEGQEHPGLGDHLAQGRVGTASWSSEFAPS
Procedure: Brains of CD-1 mice frozen in isopentane were cut using a cryostat, thaw-mounted onto microscope slides, and after air-drying stored at −80 °C until use. Briefly, the brain sections were dried in a stream of cold air, and pre-incubated in 50 mM TRIS-HCl buffer (pH 7.4, 100 mM NaCl, 5 mM MgCl2, 1 mM EDTA) containing 1 µU/mL adenosine deaminase (ADA) for 15 min at RT. Afterwards, brain sections were incubated with 0.24 MBq/mL of [^18F]PPY1 (0.2 nM) or 0.26 MBq/mL of [^18F]PPY2 (5.1 nM) in buffer for 90 min at RT. Non-specific binding was determined in the presence of 10 µM ZM241385. Displacement of both radiotracers was evaluated with 10 µM PPY1 and PPY2, respectively. Subsequently, the sections were washed twice for 5 min in ice-cold TRIS-HCl buffer, and dipped for 5 s in ice-cold deionized water. The sections were rapidly dried in a stream of cold air before being exposed overnight on an imaging plate. Developed autoradiographs were analyzed in a phosphor imager (HD-CR 35, Duerr NDT GmbH, Bietigheim-Bissingen, Germany). Quantification was performed by using 2D-densitometric analysis (AIDA 2.31 software, raytest Isotopenmessgeräte GmbH, Straubenhardt, Germany).

[4] = PET/MR imaging (brain uptake and organ distribution); format: in vivo; conditions: CD-1 mice; for SUV60 min bladder / SUV60 min small intestine: 60 min; for maximum SUV ratio of striatum-to-cerebellum: after 4 min; for initial brain uptake, standardized uptake value (SUV): between 2 and 3 min; for initial uptake in striatum and cerebellum: followed by a fast washout
Procedure: For the time of the experiments, CD-1 mice were kept in a dedicated climatic chamber with free access to water and food under a 12:12 h dark:light cycle at a constant temperature (24 °C). The animals were anaesthetized (anesthesia unit U-410; agntho’s; Lidingö; Sweden) with isoflurane (1.8%, 0.35 L/min) delivered in a 60% oxygen/40% air mixture (Gas Blender 100 Series, MCQ instruments, Rome, Italy) and maintained at 37 °C with a thermal bed system. The formulated radiotracer was injected into the tail vein ([^18F]PPY1: 3.2–4.3 MBq in 150 µL isotonic saline and <1% EtOH/DMSO; Am: 150 GBq/µmol; […]; Am: 80 GBq/µmol) followed by a 60 min PET/MR scan (PET/MR 1Tesla; nanoScan®, MEDISO Medical Imaging Systems, Budapest, Hungary). Each PET image was corrected for random coincidences, dead time, scatter and attenuation (AC), based on a whole body (WB) MR scan. The list mode data was sorted into sinograms using a framing scheme of 12 × 10 s, 6 × 30 s, 5 × 300 s, […]. The reconstruction parameters for the list mode data were 3D-ordered subset expectation maximization (OSEM), 4 iterations, 6 subsets, energy window: 400–600 keV, coincidence mode: 1–5, ring difference: 81. The mice were positioned prone in a special mouse bed (heated up to 37 °C), with the head fixed to a mouth piece for the anesthetic gas supply with isoflurane in 40% air and 60% oxygen (anesthesia unit: U-410, agnthos, Lidingö, Sweden; Gas blender: MCQ, Rome, Italy). The PET data were collected by a continuous WB scan during the entire investigation. Following the 60 min PET scan a T1 weighted WB gradient echo sequence (TR/TE: 20/6.4 ms, NEX: 1, FA: 25, FOV: 64 × 64 mm, matrix: 128 × 128, slice thickness: 0.5 mm) was performed for AC and anatomical orientation. Image registration and evaluation of the volume of interest (VOI) was done with PMOD 3.9 (PMOD technologies LLC, Zurich, Switzerland). The respective brain regions were identified using the mouse brain atlas template Ma-Benveniste-Mirrione-FDG. Spherical VOI with diameters of 1 to 2 mm were placed at the center of the liver, stomach, and spleen. Small intestine, kidney, and bladder VOI were delineated from the PET signal. Heart wall and blood were delineated from the T1 weighted image avoiding spill over from neighboring organs. The activity data is expressed as mean SUV of the overall VOI.

[5] = In vitro chemical stability in saline, PBS and n-octanol; format: physicochemical; conditions: 37 °C up to 60 min
Procedure: as §1

SMILES | logD [1] | intact radiotracer in plasma, of total activity [2] [%] | distribution of radiotracer binding in mouse brain [3] | fraction of total binding displaced by ZM241385 in striatum (specific binding) [3] [%] | initial SUV in heart, spleen, stomach and liver [4] [SUV] | specific binding in striatum in vivo (PET) [4] | SUV60 min bladder [4] [SUV] | SUV60 min small intestine [4] [SUV] | maximum SUV ratio of striatum-to-cerebellum [4] | initial brain uptake, standardized uptake value (SUV) [4] | initial uptake in striatum and cerebellum [4] | Stability in saline, PBS and n-octanol [5] | intact radiotracer in brain, of total activity [2] [%] | intact radiotracer in brain, of total activity ([2]; listed as [18F]PPY2)
Nc1nc(-c2ccco2)c2cnn(Cc3ccc([18F])cc3)c2n1 [[^18F]PPY1] | 1.59 ± 0.15 | 13 | displaceable binding was detected in various brain regions | 42 | < 3 | lack of specific binding | 8.2 | 21.9 | 1.5 | 1.2–1.4 SUV | ~ 1.3 SUV | proven | – | –
Nc1nc(-c2ccco2)c2cnn(Cc3ccccc3[18F])c2n1 [[^18F]PPY2] | 2.01 ± 0.16 | 21 | observed in the striatum | 62 | < 3 | lack of specific binding | 18.5 | 6.7 | 1.3 | 1.2–1.4 SUV | ~ 1.3 SUV | proven | 83 | more than 76%
